In patent US5334723A, “2-piperidinecarboxylic acid derivative, oncogene suppressor and agent for obtaining revertants” (Meiji Seika Kaisha, Ltd., priority 1991, dated 1994):
In brackets after ≈: the same amount, converted by molar mass.

Tests used:
[1] = Acute toxicity, intravenous administration to male BDF mice; format: in vivo, mouse; details: 3 mice per group
Source text: The compounds of the present invention were intravenously administered to male BDF mice in order to examine the acute toxicity (each group having 3 mice).

[2] = system: MethA cells (solid cancer); assay: Antitumor effect on mouse tumor cells (MTT assay), MethA; format: cell-based; details: Meth-A, 72 h, 3-day incubation
Description: (§1) The P388 and L1210 cells are derived from mouse leukemia. The MethA cells, the 3LL cells and the B16 cells are derived from solid cancer, Lewis lung cancer and melanoma, respectively.
(§2) The cells subcultured in a CO2 incubator were each suspended in an RPM1 medium or Dulbecco's modified MEM medium, supplemented with 10%(v/v) fetal serum so as to give a cell density of 5×10^4 cells/mi. To a 135 μl portion of the suspension was added each test compound shown in Table 1 followed by 3-day incubation in a CO2 incubator. After the incubation was completed, 50% inhibition concentration (IC50) was determined by the MTT assay (Igaku no Ayumi, 128, 733 (1984)).

OG56 (human lung cancer) = assay: Antitumor effect on human tumor cells (MTT assay), OG56; format: cell-based; details: same manner as Test Example 1
Description: as §2
(§3) The antitumor effects of the compounds of the present invention were evaluated in the same manner as in Test Example 1 except that various human tumor cells were employed. The HL60 cells, the CCRF-CCM cells and the QG5 cells are derived from human leukemia, human T cells and human lung cancer, respectively.

B16 cells (melanoma) = assay: Antitumor effect on mouse tumor cells (MTT assay), B16; format: cell-based; details: 72 h, 3-day incubation
Description: as §1, §2

CCRFCEM (human T cells) = assay: Antitumor effect on human tumor cells (MTT assay), CCRFCEM; format: cell-based; details: CCRF-CEM, same manner as Test Example 1
Description: as §2, §3

[3] = system: HL60 cells (human leukemia); assay: Antitumor effect on human tumor cells (MTT assay), HL60; format: cell-based; details: HL-60, same manner as Test Example 1
Description: as §2, §3

[4] = system: P388 cells (mouse leukemia); assay: Antitumor effect on mouse tumor cells (MTT assay), P388; format: cell-based; details: 72 h, 3-day incubation
Description: as §1, §2

[5] = system: 3LL cells (Lewis lung cancer); assay: Antitumor effect on mouse tumor cells (MTT assay), 3LL; format: cell-based; details: 72 h, 3-day incubation
Description: as §1, §2

[6] = system: L1210 cells (mouse leukemia); assay: Antitumor effect on mouse tumor cells (MTT assay), L1210; format: cell-based; details: 72 h, 3-day incubation
Description: as §1, §2

normal NIH3T3 cells [7] = details: 500 μg/ml, JP-A-1-110627; cited from earlier work
[8] = system: NIH3T3 cells transformed with the activated ras gene; details: JP-A-1-110627, cited from earlier work
normal NIH3T3 cells [9] = assay: Growth of normal NIH3T3 cells; format: cell-based, mouse; details: 40 μg/ml, 1st to 6th days, FIG. 1
Description: (§4) NIH3T3 cells transformed with the activated ras gene (Proc. Natl. Acad. Sci. USA, 81, 4771-4775 (1984)) and normal NIH3T3 cells were incubated in a Dulbecco-modified Eagle medium containing 5% bovine serum. The initial cell concentrations were adjusted to 1×10^4 cells/mi. The compound obtained in Example 3 was added to a concentration of 40 μg/ml and the cell numbers were counted with the lapse of time from the 1st to the 6th days.

[10] = system: NIH3T3 cells transformed with the activated c-Ha-ras gene; assay: Acquisition of revertant cells from transformed NIH3T3 cells, microscopic observation; format: cell-based, mouse; details: 40 μg/ml, 6 days
Description: (§5) NIH3T3 cells transformed with the activated c-Ha-ras gene and normal NIH3T3 cells were incubated for 6 days in the presence of 40 μg/ml of the compound obtained in Example 3 under the same conditions as in Example 6. The cells were microscopically observed in detail.

[11] = system: NIH3T3 cells transformed with the activated ras gene; assay: Growth inhibition of NIH3T3 cells transformed with activated c-Ha-ras gene; format: cell-based, mouse; details: 40 μg/ml, 1st to 6th days, FIG. 1
Description: as §4

ras gene product p21 = assay: Expression of ras gene product p21 in revertant cells (Western blotting); format: cell-based; details: revertants isolated in Example 7, FIG. 2
Description: 2×10^6 portions of these cells were collected and each suspended in 1 ml of a buffer solution (100 mM NaCl, 20 mM Tris hydrochloride (pH 7.5), 5 mM MgCl2, 1% NonidetP-40 (polyoxyethylene(9)p-tert-octylphenol), 0.5% sodium deoxycholate, protease inhibitor) and then ground with a Potter homogenizer. After centrifuging at 3600 r.p.m. for 60 minutes, 10 μg portions of proteins were isolated from the supernatant by 12.5% polyacrylamide gel electrophoresis.
Then, the proteins in the gel were transferred into a nitrocellulose membrane and reacted with NCC-RAS-004, which was a monoclonal antibody for p21, at 4° C. for 24 hours to perform Western blotting. After reacting with rat Ig and ^125 I-Protein A, radioautography was performed.

normal NIH3T3 cells [12] = assay: Morphology of normal NIH3T3 cells, microscopic observation; format: cell-based, mouse; details: 40 μg/ml, 6 days
Description: as §5

[13] = system: revertant cells transplanted onto BALB/C nude mice; assay: Carcinogenic ability of revertant cells on nude mouse; format: in vivo; details: revertants of Example 7, 3×10^5 cells
[14] = Proceedings of 50th General Meeting of Japan Society of Cancer, 1991; cited from earlier work

SMILES	Survival dose (doses causing no death) [1] [mg/kg]	IC50 [2] [µg/mL]	IC50 (OG56 (human lung cancer)) [µg/mL]	IC50 (B16 cells (melanoma)) [µg/mL]	IC50 (CCRFCEM (human T cells)) [µg/mL]	IC50 [3] [µg/mL]	IC50 [4] [µg/mL]	IC50 [5] [µg/mL]	IC50 [6] [µg/mL]	growth inhibition of normal NIH3T3 cells (azatyrosine) (normal NIH3T3 cells [7])	growth inhibition of NIH3T3 cells transformed with the activated ras gene (azatyrosine) ([8]; 500 μg/ml)	nature of cells surviving after treatment with azatyrosine [8]	growth of normal NIH3T3 cells (normal NIH3T3 cells [9])	death of transformed NIH3T3 cells [10]	revertants among surviving transformed NIH3T3 cells (morphology) [10]	growth inhibition of NIH3T3 cells transformed with the activated ras gene [11]	expression of activated p21 in revertants (ras gene product p21)	morphological change of normal NIH3T3 cells (normal NIH3T3 cells [12])	tumor formation by revertants on nude mice [13]	antitumor activity [14]
N=C1C=CCC(C(=O)O)N1 (stereo not drawn) [Compound of Ex. 4]	600	–	–	–	–	–	–	–	–	–	–	–	–	–	–	–	–	–	–	–
O=C1C=CC[C@@H](C(=O)O)N1 [Compound of Ex. 1]	1000	100 (≈ 709 µM)	180 (≈ 1280 µM)	90 (≈ 638 µM)	90 (≈ 638 µM)	90 (≈ 638 µM)	200 (≈ 1420 µM)	100 (≈ 709 µM)	130 (≈ 921 µM)	–	–	–	–	–	–	–	–	–	–	–
N[C@@H](Cc1ccc(O)cn1)C(=O)O [azatyrosine, L-β-(5-hydroxy-2-pyridyl)alanine]	–	–	–	–	–	–	–	–	–	never inhibited the growth	selectively inhibited the growth	revertant cells	–	–	–	–	–	–	–	–
O=C(O)[C@@H]1CC=CC(=S)N1 [Compound of Ex. 3]	800	11 (≈ 70 µM)	70 (≈ 445 µM)	45 (≈ 286 µM)	20 (≈ 127 µM)	20 (≈ 127 µM)	5 (≈ 31.8 µM)	11 (≈ 70 µM)	9 (≈ 57.3 µM)	–	–	–	continued to grow	partially died	revertants which were flat and had nuclei and nucleoli morphologically similar to the normal NIH3T3 cells	inhibited the growth	the activated p21 was expressed in the revertants	no morphological change	scarcely induced tumor formation	–
N=C1C=CC[C@@H](C(=O)O)N1 [SF2698]	300	46 (≈ 328 µM)	80 (≈ 571 µM)	41 (≈ 293 µM)	45 (≈ 321 µM)	45 (≈ 321 µM)	120 (≈ 856 µM)	51 (≈ 364 µM)	65 (≈ 464 µM)	–	–	–	–	–	–	–	–	–	–	has an antitumor activity
